Activity calls are given as the source filed them. No cut-off for these calls is given here.
Tests used:
[1] = Anti-proliferative activity against human HT1080 cells after 72 hrs by MTT assay; assay type: functional, cell-based; settings: HT-1080, 72 h
[2] = Anti-proliferative activity against human SGC7901 cells after 72 hrs by MTT assay; assay type: functional, cell-based; settings: SGC-7901, 72 h
KB = assay: Anti-proliferative activity against human KB cells after 72 hrs by MTT assay; assay type: functional, cell-based
Tubulin (Homo sapiens) [3] = biological target: T1, Tubulin (Homo sapiens) (UniProt P68371+Q9H4B7+P0DPH7+P68366+Q13509+Q71U36+P04350+Q3ZCM7+P07437+P68363+Q9BQE3+Q6PEY2+Q13885+Q9BVA1+Q9BUF5); assay: (§1) Inhibition of tubulin (unknown origin) polymerization pre-incubated for 1 min measured for 1 min interval for 90 mins by fluorescence based assay; assay type: protein-complex assay
Tubulin = assay: as §1; assay type: protein-complex assay, Homo sapiens
Tubulin (Homo sapiens) [4] = biological target: T1, Tubulin (Homo sapiens); assay: Inhibition of tubulin (unknown origin) polymerization at 10 uM pre-incubated for 1 min measured for 1 min interval for 90 mins by fluorescence based assay; assay type: protein-complex assay
Tubulin (Homo sapiens) [5] = biological target: T1, Tubulin (Homo sapiens); assay: Inhibition of tubulin (unknown origin) polymerization at 2.5 uM pre-incubated for 1 min measured for 1 min interval for 90 mins by fluorescence based assay; assay type: protein-complex assay
Tubulin (Homo sapiens) [6] = biological target: T1, Tubulin (Homo sapiens); assay: Inhibition of tubulin (unknown origin) polymerization at 5 uM pre-incubated for 1 min measured for 1 min interval for 90 mins by fluorescence based assay; assay type: protein-complex assay
Tubulin (Homo sapiens) [7] = biological target: T1, Tubulin (Homo sapiens); assay: Inhibition of tubulin (unknown origin) polymerization at 15 uM pre-incubated for 1 min measured for 1 min interval for 90 mins by fluorescence based assay; assay type: protein-complex assay
Tubulin (Homo sapiens) [8] = biological target: T1, Tubulin (Homo sapiens); assay: Inhibition of tubulin (unknown origin) polymerization at 1 uM pre-incubated for 1 min measured for 1 min interval for 90 mins by fluorescence based assay; assay type: protein-complex assay
Tubulin (Homo sapiens) [9] = biological target: T1, Tubulin (Homo sapiens); assay: Inhibition of tubulin (unknown origin) polymerization at 2 uM pre-incubated for 1 min measured for 1 min interval for 90 mins by fluorescence based assay; assay type: protein-complex assay
Tubulin (Homo sapiens) [10] = biological target: T1, Tubulin (Homo sapiens); assay: Inhibition of tubulin (unknown origin) polymerization at 4 uM pre-incubated for 1 min measured for 1 min interval for 90 mins by fluorescence based assay; assay type: protein-complex assay
SGC-7901 = assay: Induction of microtubule network disruption in human SGC7901 cells at 0.4 uM after 24 hrs using DAPI immunofluorescence staining; assay type: cell-based

| SMILES | IC50 [1] [µM] | IC50 [2] [µM] | IC50 (KB) [µM] | also measured |
| --- | --- | --- | --- | --- |
| COc1ccc(-c2sc(C(=O)O)cc2-c2cc(OC)c(OC)c(OC)c2)cc1[N+](=O)[O-] | 37.2 | 23.3 | 35.9 | – |
| COc1ccc(-c2ccsc2-c2cc(OC)c(OC)c(OC)c2)cc1[N+](=O)[O-] | 8.04 | 10.2 | 21 | – |
| CCOC(=O)c1cc(-c2cc(OC)c(OC)c(OC)c2)c(-c2ccc(OC)c(OCc3ccccc3)c2)s1 | > 100 | > 100 | > 100 | – |
| COc1ccc(-c2sccc2-c2cc(OC)c(OC)c(OC)c2)cc1O | 1.94 | 0.58 | 6.27 | inhibition (Tubulin (Homo sapiens) [3]): Dose-dependent effect; IC50 (Tubulin): 9.76 µM; inhibition (Tubulin (Homo sapiens) [4]): 48%; inhibition (Tubulin (Homo sapiens) [5]): 7.4%; inhibition (Tubulin (Homo sapiens) [6]): 20%; inhibition (Tubulin (Homo sapiens) [7]): 72.3% |
| COc1cc(-c2ccsc2-c2ccc3ccccc3c2)cc(OC)c1OC | 5.43 | 5.89 | 3.66 | – |
| CCOC(=O)c1cc(-c2ccc(OC)c(OCc3ccccc3)c2)c(-c2cc(OC)c(OC)c(OC)c2)s1 | > 100 | > 100 | > 100 | – |
| COc1ccc(-c2sccc2-c2cc(OC)c(OC)c(OC)c2)cc1OCc1ccccc1 | > 100 | > 100 | > 100 | – |
| COc1ccc(-c2cc(C(=O)O)sc2-c2cc(OC)c(OC)c(OC)c2)cc1[N+](=O)[O-] | 38.1 | 21.6 | 43.7 | – |
| COc1cc(-c2cc(C(=O)O)sc2-c2cccc(Br)c2)cc(OC)c1OC | > 100 | 93.4 | 32.3 | – |
| CCOC(=O)c1cc(-c2ccc(OC)c(O)c2)c(-c2cc(OC)c(OC)c(OC)c2)s1 | 82.5 | 20 | > 100 | – |
| COc1ccc(-c2cc(C(=O)O)sc2-c2cc(OC)c(OC)c(OC)c2)cc1OCc1ccccc1 | > 100 | > 100 | > 100 | – |
| COc1cc(-c2cc(C(=O)O)sc2-c2ccc3ccccc3c2)cc(OC)c1OC | 13.4 | 0.38 | 5.64 | – |
| COc1ccc(-c2sccc2-c2cc(OC)c(OC)c(OC)c2)cc1[N+](=O)[O-] | 2.1 | 3.31 | 10.6 | – |
| COc1ccc(-c2ccsc2-c2cc(OC)c(OC)c(OC)c2)cc1 | 3.62 | 2.74 | 7.4 | – |
| COc1ccc(-c2cc(C(=O)O)sc2-c2cc(OC)c(OC)c(OC)c2)cc1 | 5.81 | 4.22 | 8.65 | – |
| COc1ccc(-c2sc(C(=O)O)cc2-c2cc(OC)c(OC)c(OC)c2)cc1OCc1ccccc1 | > 100 | > 100 | > 100 | – |

| SMILES | IC50 [1] [µM] | IC50 [2] [µM] | IC50 (KB) [µM] | also measured |
| --- | --- | --- | --- | --- |
| CCOC(=O)c1cc(-c2cc(OC)c(OC)c(OC)c2)c(-c2ccc(OC)c([N+](=O)[O-])c2)s1 | 12.7 | 18.1 | 15.8 | – |
| COc1ccc(-c2sc(C(=O)O)cc2-c2cc(OC)c(OC)c(OC)c2)cc1 | 6.77 | 7.8 | 10.4 | – |
| CCOC(=O)c1cc(-c2cc(OC)c(OC)c(OC)c2)c(-c2ccc(OC)c(O)c2)s1 | 3.22 | 1.58 | 1.25 | – |
| CCOC(=O)c1cc(-c2cc(OC)c(OC)c(OC)c2)c(-c2cccc(Br)c2)s1 | > 100 | > 100 | > 100 | – |
| CCOC(=O)c1cc(-c2ccc(OC)cc2)c(-c2cc(OC)c(OC)c(OC)c2)s1 | 7.63 | 6.82 | 10.2 | – |
| COc1ccc(-c2ccsc2-c2cc(OC)c(OC)c(OC)c2)cc1O | 2.12 | 0.52 | 1.53 | inhibition (Tubulin (Homo sapiens) [3]): Dose-dependent effect; IC50 (Tubulin): 5.01 µM; inhibition (Tubulin (Homo sapiens) [8]): 10%; inhibition (Tubulin (Homo sapiens) [9]): 23.3%; inhibition (Tubulin (Homo sapiens) [10]): 39.3%; inhibition (Tubulin (Homo sapiens) [4]): 87.5%; Activity (SGC-7901): Active |
| COc1cc(-c2ccsc2-c2cccc(Br)c2)cc(OC)c1OC | > 100 | 46.1 | > 100 | – |
| COc1ccc(-c2cc(C(=O)O)sc2-c2cc(OC)c(OC)c(OC)c2)cc1O | 11.4 | 17.5 | 21.8 | – |
| CCOC(=O)c1cc(-c2cc(OC)c(OC)c(OC)c2)c(-c2ccc(OC)cc2)s1 | 8.37 | 9.76 | 13.2 | – |
| COc1ccc(-c2sc(C(=O)O)cc2-c2cc(OC)c(OC)c(OC)c2)cc1O | 7.51 | 6.1 | 11.2 | – |
| COc1ccc(/C=C\c2cc(OC)c(OC)c(OC)c2)cc1O [COMBRETASTATIN A4] | 0.011 | 0.024 | 0.016 | Activity (SGC-7901): Active |
| COc1ccc(-c2sccc2-c2cc(OC)c(OC)c(OC)c2)cc1 | 4.59 | 5.47 | 8.88 | – |
| COc1ccc(-c2ccsc2-c2cc(OC)c(OC)c(OC)c2)cc1OCc1ccccc1 | > 100 | > 100 | > 100 | – |
| CCOC(=O)c1cc(-c2cc(OC)c(OC)c(OC)c2)c(-c2ccc3ccccc3c2)s1 | 1.15 | 4.34 | 5.89 | – |
| CCOC(=O)c1cc(-c2ccc(OC)c([N+](=O)[O-])c2)c(-c2cc(OC)c(OC)c(OC)c2)s1 | 26.1 | 19.4 | 24 | – |

Reference: ChEMBL document CHEMBL3739424, “Synthesis and biological evaluation of 2,3-diarylthiophene analogues of combretastatin A-4” (Medchemcomm, 2015)
